# Square brackets hold non-standard residues; d marks the D form. Ends that are not written are not given here. Lys(Me3) = C[N+](C)(C)CCCC[C@H](N)C(=O)O
# Legend:
# Type in all cases: biochemical, human
# [1] = system: KDM4A (KDM4A1–359); experiment: MALDI-TOF MS demethylation activity assay, KDM4A; design: key: 🟢: Indicates that clear demethylation activity was observed; 🟡: Indicates that low level demethylation activity was observed (<10% conversion after 1 h); 🔴: Indicates no activity under the stated conditions (1 μM KDM, 10 μM peptide); 🟡*: *Indicates demethylation activity was only observed with 5 μM KDM; conditions: peptide as substrate, 1 μM KDM, 10 μM peptide, 50 mM HEPES pH 7.5, Fe(II) 10 μM, ascorbate 100 μM, 2OG 200 μM, 1 h at 37 °C
# Experimental: (§1) Recombinant proteins (1 μM) were incubated with peptides (10 μM, sequences are given in Table S1) in 50 mM HEPES, pH 7.5 with addition of Fe(II) ammonium sulfate (10 μM), sodium ascorbate (100 μM) and 2‐oxoglutaric acid (200 μM). Reactions with KDM3A and KDM7A also contained 1 mM tris(2‐carboxyethyl)phosphine hydrochloride. No enzyme reactions were included as negative controls. Reactions were incubated for 1 h at 37 °C before being quenched with 1 : 1 (v/v) methanol. Analysis was carried out by MALDI‐TOF MS (Bruker, Billerica, MA, USA), with demethylation observed as mass shifts of 14 Da.
# (§2) Given the activity observed with KDM4E and KDM7A, we decided to investigate the intra‐subfamily conservation of this demethylation activity. The demethylation activity of the other subfamily members (KDM4A‐D and KDM7B) was therefore screened. […] Note that as with H3K9, demethylation of the monomethylated H1.4K26 peptide was only observed with KDM4E, under the stated conditions 24.
# [2] = system: KDM3A (KDM3A515–1317); experiment: MALDI-TOF MS demethylation activity assay, KDM3A; design: key: 🟢: Indicates that clear demethylation activity was observed; 🟡: Indicates that low level demethylation activity was observed (<10% conversion after 1 h); 🔴: Indicates no activity under the stated conditions (1 μM KDM, 10 μM peptide); 🟡*: *Indicates demethylation activity was only observed with 5 μM KDM; conditions: peptide as substrate, 1 μM KDM, 10 μM peptide, 50 mM HEPES pH 7.5, Fe(II) 10 μM, ascorbate 100 μM, 2OG 200 μM, 1 mM TCEP, 1 h at 37 °C
# Experimental: as §1
# (§3) The propensity of human JmjC KDMs to catalyse demethylation at H1.4K26 was investigated using recombinant forms of the catalytic domains of representatives of each human JmjC KDM subfamily (KDM2‐7) and fragment peptides (Table S1) 37. Three peptides with identical sequences, corresponding to residues 18–32 of histone H1.4 (H2N‐[…]‐CONH2), but containing either a N ^ε‐tri‐, di‐ or monomethyllysine at K26 were synthesised (Fig. 1B and Table S1). Activity assays monitoring JmjC KDM‐catalysed demethylation of the peptides were then carried out; samples were prepared containing each peptide, 2‐oxoglutarate (2OG), ferrous iron, ascorbate and individual representatives from each JmjC KDM subfamily (KDM2A 38, KDM3A 21, KDM4E 22, KDM5C 39, 40, KDM6B 41, KDM7A 42).
# [3] = system: KDM4C (KDM4C1–359); experiment: MALDI-TOF MS demethylation activity assay, KDM4C; design: key: 🟢: Indicates that clear demethylation activity was observed; 🟡: Indicates that low level demethylation activity was observed (<10% conversion after 1 h); 🔴: Indicates no activity under the stated conditions (1 μM KDM, 10 μM peptide); 🟡*: *Indicates demethylation activity was only observed with 5 μM KDM; conditions: peptide as substrate, 1 μM KDM, 10 μM peptide, 50 mM HEPES pH 7.5, Fe(II) 10 μM, ascorbate 100 μM, 2OG 200 μM, 1 h at 37 °C
# Experimental: as §1, §2
# [4] = system: KDM7A (KDM7A38–480); experiment: MALDI-TOF MS demethylation activity assay, KDM7A; design: key to demethylation activity on methylated H1.4 peptide: 🟢: Indicates that clear demethylation activity was observed; 🟡: Indicates that low level demethylation activity was observed (<10% conversion after 1 h); 🔴: Indicates no activity under the stated conditions (1 μM KDM, 10 μM peptide); 🟡*: *Indicates demethylation activity was only observed with 5 μM KDM; conditions: peptide as substrate; MALDI-TOF MS; 1 μM KDM, 10 μM peptide, 50 mM HEPES pH 7.5, Fe(II) 10 μM, ascorbate 100 μM, 2OG 200 μM, 1 mM TCEP, 1 h at 37 °C
# Experimental: as §1, §3
# N ^ε‐Trimethylated H3K4 binds to the plant homeobox domain of KDM7B, targeting the N ^ε‐dimethyllysine at H3K9 to the catalytic domain, and thus promoting demethylation 29, 44. To test whether similar targeting may occur with H1.4, promoting activity at H1.4K26, an H1.4 peptide was synthesised containing di‐N ^ε‐methyllysine at K26 and tri‐N ^ε‐methyllysine at K21 (i.e. at the equivalent position in the sequence to K4 in the H3 peptide, Fig. 1B, Table S1). Monomethylation at H1.4K21 has previously been observed by proteomic mass spectrometry 45. With the aim of enhancing activity, the enzyme concentration was increased from 1 μM to 5 μM, and time course analyses were conducted with both KDM7A and KDM7B, both with the new peptide (H1.4(18–32)K21me3K26me2) and the H1.4 peptides methylated only at K26 (Fig. 2B). […] Thus, it appears unlikely that N ^ε‐trimethylation at H1.4K21 promotes demethylation at H1.4K26 by KDM7B.
# [5] = system: KDM4A; experiment: 1H NMR activity assay (time course); conditions: KDM4A 10 μM, peptide 400 μM, 2OG 400 μM, Fe(II) 100 μM, ascorbate 1 mM, 50 mM ammonium formate pH 7.5, 500 mM NaCl, 700 MHz
# Experimental: The NMR analyses employed a Bruker Avance III 700 MHz spectrometer with an inverse TCI cryoprobe optimised for ^1H observation and were carried out as previously described 6. Samples (KDM4A (10 μM), 2OG (400 μM), H1.4(18–32)K26me3 peptide (400 μM), Fe(II) ammonium sulfate (100 μM) and ascorbate (1 mM) in 50 mM ammonium formate, pH 7.5, 500 mM NaCl in 10% v/v D2O) were prepared in a microcentrifuge tube (total volume = 75 μL), before being transferred to an NMR tube. The samples were then analysed over time using automated routines; each time‐point corresponded to one experiment accumulating 16 transients (89 s total acquisition time per experiment). The solvent resonance was depleted by excitation sculpting using a 180° sinc pulse (duration = 2 ms) 30.
# Studies then focused on determining the proficiency of H1.4K26 demethylation by the KDM4 enzymes.
# [6] = system: KDM4D (KDM4D1–359); experiment: MALDI-TOF MS demethylation activity assay, KDM4D; design: key: 🟢: Indicates that clear demethylation activity was observed; 🟡: Indicates that low level demethylation activity was observed (<10% conversion after 1 h); 🔴: Indicates no activity under the stated conditions (1 μM KDM, 10 μM peptide); 🟡*: *Indicates demethylation activity was only observed with 5 μM KDM; conditions: peptide as substrate, 1 μM KDM, 10 μM peptide, 50 mM HEPES pH 7.5, Fe(II) 10 μM, ascorbate 100 μM, 2OG 200 μM, 1 h at 37 °C
# Experimental: as §1, §2
# [7] = system: KDM6B (KDM6B1141–1590); experiment: MALDI-TOF MS demethylation activity assay, KDM6B; design: key: 🟢: Indicates that clear demethylation activity was observed; 🟡: Indicates that low level demethylation activity was observed (<10% conversion after 1 h); 🔴: Indicates no activity under the stated conditions (1 μM KDM, 10 μM peptide); 🟡*: *Indicates demethylation activity was only observed with 5 μM KDM; conditions: peptide as substrate, 1 μM KDM, 10 μM peptide, 50 mM HEPES pH 7.5, Fe(II) 10 μM, ascorbate 100 μM, 2OG 200 μM, 1 h at 37 °C
# Experimental: as §1, §3
substance,measurement,setting,value
"TPVKKKAR[Lys(Me3)]SAGAAK [H1.4(18–32)K26me3, peptide of residues 18–32 of histone H1.4 with N ε-trimethyllysine at K26]",demethylation activity on methylated H1.4 peptide,[1],🟢
same,demethylation activity on methylated H1.4 peptide,[2],🔴
same,demethylation activity on methylated H1.4 peptide,[3],🟢
same,demethylation activity on methylated H1.4 peptide,[4],🔴
same,demethylation of the Kme3 residue by 1H NMR (result in words),[5],time‐dependent demethylation
same,demethylation activity on methylated H1.4 peptide,[6],🟢
same,demethylation activity on methylated H1.4 peptide,[7],🔴

# From publication PMC6220849, “Mechanistic and structural studies of KDM‐catalysed demethylation of histone 1 isotype 4 at lysine 26” (Febs Letters, 2018)
